Experimental data reported in patent publication US6967205B1, “Compounds with antibacterial and antiparasitic properties” (New Pharma Research Sweden AB, priority 1999, dated 2005).
Converted amounts (≈) assume the structure as drawn.

Tests used:
Assay in all cases: M.I.C. by broth dilution method (NCCLS 1988), gram-positive bacteria
Format in all cases: cell-based
Bacillus cereus = settings: in vitro broth dilution
Procedure: (§1) The antibacterial activity of the present compounds was investigated by in vitro evaluation of their M.I.C. (Minimum Inhibitory Concentration) values. The evaluation was conducted in complete accordance with the “Broth dilution method”, as outlined by the U.S. National Committee for Clinical Laboratory Standards “NCCLS 1988”.
(§2) Solutions of the present compounds were prepared by dissolving 0.01 g of a test compound in either 10% KOH (aq) or a 10% KOH/DMF mixture, after which sterile, distilled H2O was added up to a total volume of 10 ml, thereby yielding a test compound concentration of 1 000 μg/ml.
(§3) In this evaluation, the antibacterial activity of the present compounds and enrofloxacin as reference compound was tested against seven strains of gram-positive bacteria, namely Bacillus subtilus (ATCC 6633), Bacillus cereus, Streptococcus faecium, Micrococcus Luteus (ATCC 9341), Staph. aureus (ATCC 29737), Staph. epidermidis (ATCC 12228) and Staphylococcus (ATCC 6538).

[1] = test system: Staph. epidermidis (ATCC 12228); settings: Staphylococcus epidermidis, ATCC12228, in vitro broth dilution
Procedure: as §1, §2, §3

[2] = test system: Bacillus subtilus (ATCC 6633); settings: ATCC6633, in vitro broth dilution
Procedure: as §1, §2, §3

[3] = test system: Micrococcus Luteus (ATCC 9341); settings: ATCC9341, in vitro broth dilution, read-out: M.I.C. values Microc. Luteus
Procedure: as §1, §2, §3

Streptococcus faecium = settings: Enterococcus faecium, in vitro broth dilution, read-out: M.I.C. values Streptoc. faecium
Procedure: as §1, §2, §3

[4] = test system: Staphylococcus (ATCC 6538); settings: ATCC6538, in vitro broth dilution, read-out: M.I.C. values Staph. (ATCC 6538)
Procedure: as §1, §2, §3

[5] = test system: Staph. aureus (ATCC 29737); settings: Staphylococcus aureus, ATCC29737, in vitro broth dilution
Procedure: as §1, §2, §3

| Structure (SMILES) | MIC (Bacillus cereus) | MIC [1] | MIC [2] | MIC [3] | MIC (Streptococcus faecium) | MIC [4] | MIC [5] |
| --- | --- | --- | --- | --- | --- | --- | --- |
| O=C(O)c1cn(C2CC2)c2cc(N3CCN(S(=O)(=O)Cc4ccccc4)CC3)c(F)cc2c1=O [JA 9, 7-[4-(benzylsulfonyl)-1-piperazinyl]-1-cyclopropyl-6-fluoro-4-oxo-1,4-dihydro-3-quinolinecarboxylic acid] | 0.25 µg/mL (≈ 0.515 µM) | 0.12 µg/mL (≈ 0.247 µM) | 0.25 µg/mL (≈ 0.515 µM) | 1 µg/mL (≈ 2.06 µM) | 1 µg/mL (≈ 2.06 µM) | 0.06 µg/mL (≈ 0.124 µM) | ≥ 0.12 µg/mL |
| CS(=O)(=O)N1CCN(c2cc3c(cc2F)c(=O)c(C(=O)O)cn3C2CC2)CC1 [JA 10, 1-cyclopropyl-6-fluoro-7-[4-(methylsulfonyl)-1-piperazinyl]-4-oxo-1,4-dihydro-3-quinolinecarboxylic acid] | 0.12 µg/mL (≈ 0.293 µM) | 0.25 µg/mL (≈ 0.611 µM) | 0.5 µg/mL (≈ 1.22 µM) | 2 µg/mL (≈ 4.88 µM) | 1 µg/mL (≈ 2.44 µM) | 0.25 µg/mL (≈ 0.611 µM) | 0.25 µg/mL (≈ 0.611 µM) |
| O=C(O)c1cn(C2CC2)c2cc(N3CCN(c4ccc(Br)cn4)CC3)c(F)cc2c1=O [JA 40, 7-[4-(5-bromo-2-pyridinyl)-1-piperazinyl]-1-cyclopropyl-6-fluoro-4-oxo-1,4-dihydro-3-quinolinecarboxylic acid] | 0.06 µg/mL (≈ 0.123 µM) | 0.12 µg/mL (≈ 0.246 µM) | 0.12 µg/mL (≈ 0.246 µM) | 2 µg/mL (≈ 4.1 µM) | 1 µg/mL (≈ 2.05 µM) | 0.06 µg/mL (≈ 0.123 µM) | 0.25 µg/mL (≈ 0.513 µM) |
| O=C(O)c1ccc(CNc2cc3c(cc2F)c(=O)c(C(=O)O)cn3C2CC2)cc1 [JA 70, 7-[(4-carboxybenzyl)amino]-1-cyclopropyl-6-fluoro-4-oxo-1,4-dihydro-3-quinolinecarboxylic acid] | 0.12 µg/mL (≈ 0.303 µM) | 0.25 µg/mL (≈ 0.631 µM) | 0.25 µg/mL (≈ 0.631 µM) | 1 µg/mL (≈ 2.52 µM) | 2 µg/mL (≈ 5.05 µM) | 0.12 µg/mL (≈ 0.303 µM) | 0.12 µg/mL (≈ 0.303 µM) |
| O=C(O)c1cn(C2CC2)c2cc(NCCN3CCCCC3)c(F)cc2c1=O [JA 76, 1-cyclopropyl-6-fluoro-4-oxo-7-{[2-(1-piperidinyl)ethyl]-amino}-1,4-dihydro-3-quinolinecarboxylic acid] | 0.12 µg/mL (≈ 0.321 µM) | 0.12 µg/mL (≈ 0.321 µM) | 0.12 µg/mL (≈ 0.321 µM) | 2 µg/mL (≈ 5.36 µM) | 1 µg/mL (≈ 2.68 µM) | 0.06 µg/mL (≈ 0.161 µM) | 0.12 µg/mL (≈ 0.321 µM) |
| O=C(O)c1cn(C2CC2)c2cc(N(CCN3CCCCC3)C(=O)c3cccs3)c(F)cc2c1=O [JA 128, 1-cyclopropyl-6-fluoro-4-oxo-7-[[2-(1-piperidinyl)ethyl]-(2-thienylcarbonyl)amino]-1,4-dihydro-3-quinolinecarboxylic acid] | 0.06 µg/mL (≈ 0.124 µM) | 0.06 µg/mL (≈ 0.124 µM) | 0.12 µg/mL (≈ 0.248 µM) | 2 µg/mL (≈ 4.14 µM) | 1 µg/mL (≈ 2.07 µM) | 0.12 µg/mL (≈ 0.248 µM) | 0.12 µg/mL (≈ 0.248 µM) |
| O=C(O)c1cn(C2CC2)c2cc(N(CC3CCCO3)S(=O)(=O)c3ccc4ccccc4c3)c(F)cc2c1=O (stereo not shown) [JA 136, 1-cyclopropyl-6-fluoro-7-[(2-naphthylsulfonyl)(tetrahydro-2-furanylmethyl)amino]-4-oxo-1,4-dihydro-3-quinolinecarboxylic acid] | 0.06 µg/mL (≈ 0.112 µM) | 0.12 µg/mL (≈ 0.224 µM) | 0.12 µg/mL (≈ 0.224 µM) | 2 µg/mL (≈ 3.73 µM) | 0.5 µg/mL (≈ 0.932 µM) | 0.12 µg/mL (≈ 0.224 µM) | 0.12 µg/mL (≈ 0.224 µM) |
| O=C(O)c1cn(C2CC2)c2cc(N(CC3CCCO3)S(=O)(=O)CCc3ccccc3)c(F)cc2c1=O (stereo not shown) [JA 137, 1-cyclopropyl-6-fluoro-4-oxo-7-[(phenethylsulfonyl)(tetrahydro-2-furanylmethyl)amino]-1,4-dihydro-3-quinolinecarboxylic acid] | 0.25 µg/mL (≈ 0.486 µM) | 0.25 µg/mL (≈ 0.486 µM) | 0.12 µg/mL (≈ 0.233 µM) | 2 µg/mL (≈ 3.89 µM) | 1 µg/mL (≈ 1.94 µM) | 0.12 µg/mL (≈ 0.233 µM) | 0.5 µg/mL (≈ 0.972 µM) |

The remaining lines, values ahead:

| MIC (Bacillus cereus) | MIC [1] | MIC [2] | MIC [3] | MIC (Streptococcus faecium) | MIC [4] | MIC [5] | Structure (SMILES) |
| --- | --- | --- | --- | --- | --- | --- | --- |
| 0.06 µg/mL (≈ 0.124 µM) | 0.06 µg/mL (≈ 0.124 µM) | 0.12 µg/mL (≈ 0.247 µM) | 0.5 µg/mL (≈ 1.03 µM) | 0.5 µg/mL (≈ 1.03 µM) | 0.03 µg/mL (≈ 0.0618 µM) | 0.12 µg/mL (≈ 0.247 µM) | Cc1ccc(S(=O)(=O)N2CCN(c3cc4c(cc3F)c(=O)c(C(=O)O)cn4C3CC3)CC2)cc1 [JA 2, 1-cyclopropyl-6-fluoro-7-{4-[(4-methylphenyl)sulfonyl]-1-piperazinyl}-4-oxo-1,4-dihydro-3-quinolinecarboxylic acid] |
| 0.01 µg/mL (≈ 0.0204 µM) | 0.06 µg/mL (≈ 0.123 µM) | 0.25 µg/mL (≈ 0.511 µM) | 2 µg/mL (≈ 4.09 µM) | 0.5 µg/mL (≈ 1.02 µM) | 0.06 µg/mL (≈ 0.123 µM) | 0.25 µg/mL (≈ 0.511 µM) | CCn1cc(C(=O)O)c(=O)c2cc(F)c(N3CCN(S(=O)(=O)c4ccc(OC)cc4)CC3)cc21 [JA 21, 1-ethyl-6-fluoro-7-{4-[(4-methoxyphenyl)sulfonyl]-1-piperazinyl}-4-oxo-1,4-dihydro-3-quinolinecarboxylic acid] |
| 0.25 µg/mL (≈ 0.527 µM) | 0.25 µg/mL (≈ 0.527 µM) | 0.5 µg/mL (≈ 1.05 µM) | 2 µg/mL (≈ 4.22 µM) | 1 µg/mL (≈ 2.11 µM) | 0.25 µg/mL (≈ 0.527 µM) | 0.25 µg/mL (≈ 0.527 µM) | O=C(O)c1cn(C2CC2)c2cc(N3CCN(c4cccc(Cl)c4S)CC3)c(F)cc2c1=O [JA 41, 7-[4-(3-chloro-2-sulfanylphenyl)-1-piperazinyl]-1-cyclopropyl-6-fluoro-4-oxo-1,4-dihydro-3-quinolinecarboxylic acid] |
| 0.06 µg/mL (≈ 0.147 µM) | 0.12 µg/mL (≈ 0.293 µM) | 0.12 µg/mL (≈ 0.293 µM) | 1 µg/mL (≈ 2.44 µM) | 0.5 µg/mL (≈ 1.22 µM) | 0.12 µg/mL (≈ 0.293 µM) | 0.12 µg/mL (≈ 0.293 µM) | O=C(O)c1cn(C2CC2)c2cc(N3CCN(c4cnccn4)CC3)c(F)cc2c1=O [JA 46, 1-cyclopropyl-6-fluoro-4-oxo-7-[4-(2-pyrazinyl)-1-piperazinyl]-1,4-dihydro-3-quinolinecarboxylic acid] |
| 0.06 µg/mL (≈ 0.154 µM) | 0.12 µg/mL (≈ 0.309 µM) | 0.12 µg/mL (≈ 0.309 µM) | 2 µg/mL (≈ 5.15 µM) | 2 µg/mL (≈ 5.15 µM) | 0.12 µg/mL (≈ 0.309 µM) | 0.12 µg/mL (≈ 0.309 µM) | O=C(O)c1cn(C2CC2)c2cc(NC3CCC(C(=O)O)CC3)c(F)cc2c1=O (stereo not shown) [JA 69, 7-[(4-carboxycyclohexyl)amino]-1-cyclopropyl-6-fluoro-4-oxo-1,4-dihydro-3-quinolinecarboxylic acid] |
| 0.06 µg/mL (≈ 0.154 µM) | 0.12 µg/mL (≈ 0.307 µM) | 0.12 µg/mL (≈ 0.307 µM) | 2 µg/mL (≈ 5.12 µM) | 1 µg/mL (≈ 2.56 µM) | 0.12 µg/mL (≈ 0.307 µM) | 0.06 µg/mL (≈ 0.154 µM) | CN(CCCN)CCCNc1cc2c(cc1F)c(=O)c(C(=O)O)cn2C1CC1 [JA 102, 7-({3-[(3-aminopropyl)(methyl)amino]propyl}amino)-1-cyclopropyl-6-fluoro-4-oxo-1,4-dihydro-3-quinolinecarboxylic acid] |
| 0.12 µg/mL (≈ 0.265 µM) | 0.12 µg/mL (≈ 0.265 µM) | 0.12 µg/mL (≈ 0.265 µM) | 2 µg/mL (≈ 4.42 µM) | 1 µg/mL (≈ 2.21 µM) | 0.12 µg/mL (≈ 0.265 µM) | 0.12 µg/mL (≈ 0.265 µM) | O=C(O)c1cn(C2CC2)c2cc(N(Cc3ccco3)C(=O)c3cccs3)c(F)cc2c1=O [JA 124, 1-cyclopropyl-6-fluoro-7[(2-furylmethyl)(2-thienylcarbonyl)amino]-4-oxo-1,4-dihydro-3-quinolinecarboxylic acid] |
| 0.06 µg/mL (≈ 0.116 µM) | 0.12 µg/mL (≈ 0.232 µM) | 0.12 µg/mL (≈ 0.232 µM) | 2 µg/mL (≈ 3.87 µM) | 0.5 µg/mL (≈ 0.968 µM) | 0.12 µg/mL (≈ 0.232 µM) | 0.12 µg/mL (≈ 0.232 µM) | COc1ccc(S(=O)(=O)N(CC2CCCO2)c2cc3c(cc2F)c(=O)c(C(=O)O)cn3C2CC2)cc1 (stereo not shown) [JA 135, 1-cyclopropyl-6-fluoro-7-[[(4-methoxyphenyl)sulfonyl](tetrahydro-2-furanylmethyl)amino]-4-oxo-1,4-dihydro-3-quinolinecarboxylic acid] |
